Patent US10328061B2, “Treatment of Zika virus infections using alpha-glucosidase inhibitors” (FLORIDA STATE UNIVERSITY RESEARCH FOUNDATION, INC., priority 2016, dated 2019)

What was measured:
[1] = tested on: Japanese encephalitis virus; details: compared with Dengue virus; cited from earlier work
[2] = tested on: Japanese encephalitis virus; details: mice given a lethal dose of Japanese encephalitis virus; cited from earlier work
[3] = tested on: Zika virus (FSS13025); assay: Zika viral load in serum of Ifnar1-/- mice (ZIKV NS1 ELISA); format: in vivo, Ifnar1-/- mice (C57BL/6 background); details: 100 mg/kg BW intraperitoneal, day 0 to day 3
From the text: FIGS. 2A-2B. Zika viral load in serum in Ifnar1−/− mice. Serum was separated from the blood by centrifugation. Viral load (NS1) was estimated using the ZIKV NS1 ELISA Kit (BioFront Technologies, Fl, USA) as per the manual. Statistical analysis was done by unpaired t-test using GraphPad Prism software. *p<0.05 is considered as significant (FIG. 2B). With castanospermine treatment, there was 46% reduction in Zika virus load as estimated by NS1 protein in the serum (FIG. 2A).
(§1) Ifnar1−/− mice (C57BL/6 background) were obtained (Muller U. et al. “Functional role of type I and type II interferons in antiviral defense”. Science. 1994; 264(5167):1918-21. Epub 1994/06/24). Out of 18 total Ifnar1−/− mice, two mice were dosed with castanospermine and media, 8 mice (male+female) were dosed with saline and ZIKV, and 8 mice were dosed with castanospermine and ZIKV on day-0. The drug was continued for three more days and animals were sacrificed on day-3. Body weight and water consumption were monitored daily.

[4] = tested on: Zika virus (FSS13025); assay: Zika viral load in liver of Ifnar1-/- mice (ZIKV NS1 gene real time PCR); format: in vivo, Ifnar1-/- mice (C57BL/6 background); details: 100 mg/kg BW intraperitoneal, day 0 to day 3, ZIKV NS1 gene by real time PCR
Experimental: FIGS. 3A-3B. Zika viral load in liver of Ifnar1−/− mice. After euthanizing the mice, liver tissue samples were stored in RNAase later buffer, and after homogenization in lysis buffer the total RNA was extracted using Rneasy column (Qiagen). cDNA was prepared using RT reaction. The expression level of the ZIKV NS1 gene was quantified by real time PCR using specific primers. Statistical analysis was done by unpaired t-test using GraphPad Prism software. *p<0.05 is considered as significant (FIG. 3B). There was a 68% decrease in the viral load in the liver with castanospermine treatment (FIG. 3A).
as §1

[5] = tested on: West Nile Virus; details: cited from earlier work
[6] = tested on: FSS-13025 strain of ZIKV; assay: Anti-ZIKV activity in SNB-19 cells, ZIKV-NS1 Western blot; format: cell-based, Zika virus; details: 100 μm, 500 μm and 1 mM, one hour prior to inoculation (MOI=1), harvested 24 hours post-infection
Experimental: FIG. 1. Castanospermine as anti-ZIKV compound. Castanospermine was screened for antiviral activity against ZIKV infection. Glioblastoma SNB-19 cells were treated with castanospermine at the indicated concentrations one hour prior to inoculation with the FSS-13025 strain of ZIKV (at MOI=1). Cells were harvested 24 hours post-infection and analyzed by Western blot for ZIKV-NS1 or GAPDH.
Cells of the glioblastoma SNB-19 cell line were maintained at 37° C. in 5% CO2 in […], 1× penicillin/streptomycin, and 10% fetal bovine serum (Invitrogen). SNB-19 cells were treated with castanospermine at increasing concentrations (100 μm, 500 μm, and 1 mM) one hour prior to inoculation with the FSS-13025 strain of ZIKV. Cells were harvested 24 hours post-infection and analyzed by Western blot for ZIKV-NS1 or GAPDH.

[7] = by endogenous esterases; cited from earlier work

CCCCCCCCCN1C[C@H](O)[C@@H](O)[C@H](O)[C@H]1CO [NN-DNJ, N-nonyl-deoxynojirimycin]
suppression of cell infection by Japanese encephalitis virus [1]: suppressed cell infection but to a lesser extent than with Dengue virus
mortality rate [2]: decreased mortality rate

O[C@H]1[C@H](O)[C@@H](O)CN2CC[C@H](O)[C@H]12 [castanospermine, (1S,6S,7R,8aR)-Tetrahydroxyoctahydroindolizine]
reduction in Zika virus load as estimated by NS1 protein in the serum [3]: 46%
decrease in the viral load in the liver [4]: 68%
sensitivity of West Nile Virus [5]: insensitive
inhibition of ZIKV infection (ZIKV protein NS1 expression) [6]: significantly inhibit ZIKV infection

CCCC(=O)O[C@H]1CN2CC[C@H](O)[C@@H]2[C@@H](O)[C@@H]1O [celgosivir, 6-O-butanoyl castanospermine]
conversion to castanospermine [7]: rapidly converted
